The record followed here is US20250195521A1 (Revolution Medicines, Inc., priority 2020, published 2025).

Assay [1] addresses KRAS G13D binding to BRAF RBD (Homo sapiens (Human), UniProt P01116+P62937, G13D). The experiment in a line: Ras-Raf disruption/FRET/MOA assay, KRAS G13D. The assay is classed as biochemical. The text has this: (§1) Note—The following protocol describes a procedure for monitoring disruption of K-Ras G12C(GMP-PNP) binding to BRAF^RBD by a compound of the invention. This protocol may also be executed substituting other Ras proteins or nucleotides.
(§2) The purpose of this biochemical assay was to measure the ability of test compounds to facilitate ternary complex formation between a nucleotide-loaded K-Ras isoform and Cyclophilin A; the resulting ternary complex disrupts binding to a BRAF^RBD construct, inhibiting K-Ras signaling through a RAF effector. Data is reported as IC50 values.
(§3) Compound was present in plate wells as a 10-point 3-fold dilution series starting at a final concentration of 30 μM. After incubation at 25° C. for 3 hours, a mixture of Anti-His Eu—W1024 and anti-GST allophycocyanin was then added to assay sample wells at final concentrations of 10 nM and 50 nM, respectively, and the reaction incubated for an additional 1.5 hours. […] Compounds that facilitate disruption of a K-Ras: RAF complex were identified as those eliciting a decrease in the TR-FRET ratio relative to DMSO control wells.

The target of assay [2] is NRAS G12C binding to BRAF RBD (Homo sapiens (Human), UniProt P01111+P62937, G12C). Nature of the assay: Ras-Raf disruption/FRET/MOA assay, NRAS G12C. The assay is classed as biochemical.
From the text: as §1, §2, §3

In assay [3] the test system is AsPC-1 (K-Ras G12D). Nature of the assay: CellTiter-Glo cell viability assay, AsPC-1. The note with it: Homo sapiens, ASPC1, 120 h, read-out: AsPC-1 Cell Viability IC50. The assay is classed as cell-based, human. In a few lines:
(§4)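 Luminescent viability readout on day 5 after direct compound addition to plated cells; plates sat ~30 min at room temperature before reading. Values expressed as percent of mean DMSO signal, curves fit with a four-parameter logistic model.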
A general note: Cellular ATP, detected with luciferase, serves as a proxy for viable cell number.

For a further assay, the target named is KRAS G12S (Homo sapiens (Human), UniProt P01116+P62937, G12S). The experiment in a line: Ras-Raf disruption/FRET/MOA assay, KRAS G12S. The assay is classed as biochemical. In a few lines:
(§5)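 TR-FRET of nucleotide-loaded (GMP-PNP) His6-Ras (12.5 nM) binding to GST-BRAF RBD (50 nM) with Cyclophilin A (25 μM) in HEPES pH 7.3 buffer; 10-point 3-fold compound series from 30 μM, 3 h at 25 °C, then anti-His Eu/anti-GST APC 1.5 h. IC50 from decreased FRET ratio vs DMSO.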

A further assay addresses KRAS G12V (Homo sapiens (Human), UniProt P01116+P62937, G12V). The experiment in a line: Ras-Raf disruption/FRET/MOA assay, KRAS G12V. It is filed as biochemical. An outline of the steps:
as §5

The subject of assay [4] is AsPC-1 (K-Ras G12D). Nature of the assay: Potency assay: pERK. The assay is classed as cell-based, human. The note with it: Homo sapiens, ASPC1, read-out: pERK EC50. In a few lines:
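pERK decrease measured after 4 h compound treatment at 37 °C (10 three-fold dilutions, duplicate wells), by either fixed-cell In-Cell Western with DRAQ5 counterstain or AlphaLISA on lysates. Signal fitted against log concentration with a four-parameter model to give IC50.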

For a further assay, the target named is KRAS WT (Homo sapiens (Human), UniProt P01116+P62937). The experiment in a line: Ras-Raf disruption/FRET/MOA assay, KRAS WT. The assay is classed as biochemical. In a few lines:
as §5

Another assay deals with NRAS G12C (Homo sapiens (Human), UniProt P01111+P62937, G12C). Nature of the assay: Ras-Raf disruption/FRET/MOA assay, NRAS G12C. It is filed as biochemical. An outline of the steps:
as §5

In the next assay the target is KRAS G12C (Homo sapiens (Human), UniProt P01116+P62937, G12C). Nature of the assay: Ras-Raf disruption/FRET/MOA assay, KRAS G12C. It is filed as biochemical. In a few lines:
as §5

In another assay the target is KRAS G13D (Homo sapiens (Human), UniProt P01116+P62937, G13D). The experiment in a line: Ras-Raf disruption/FRET/MOA assay, KRAS G13D. The assay is classed as biochemical. In a few lines:
as §5

Another assay concerns the target KRAS G13C (Homo sapiens (Human), UniProt P01116+P62937, G13C). Nature of the assay: Ras-Raf disruption/FRET/MOA assay, KRAS G13C. The assay is classed as biochemical. An outline of the steps: as §5
The target in a further assay is KRAS G12D (Homo sapiens (Human), UniProt P01116+P62937, G12D). The experiment in a line: Ras-Raf disruption/FRET/MOA assay, KRAS G12D. It is filed as biochemical. An outline of the steps:
as §5

Another assay has as its system NCI-H358 (K-Ras G12C). The experiment in a line: CellTiter-Glo cell viability assay, H358. Conditions: Homo sapiens, NCI-H358, 120 h, read-out: H358 Cell Viability IC50, K-Ras G12C, 5-day treatment. The assay is classed as cell-based, human. In a few lines:
as §4

Molecules are shown by their SMILES.

Chain of KRAS G13C (P01116 other isoform, or with tags, fused parts or gaps G13C): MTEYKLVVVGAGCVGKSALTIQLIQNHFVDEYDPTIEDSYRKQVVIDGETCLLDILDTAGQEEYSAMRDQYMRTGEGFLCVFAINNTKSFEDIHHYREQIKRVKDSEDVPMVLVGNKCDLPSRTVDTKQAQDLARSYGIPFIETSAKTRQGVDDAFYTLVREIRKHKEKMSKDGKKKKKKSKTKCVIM
Chain of KRAS G13C (P62937 whole entry): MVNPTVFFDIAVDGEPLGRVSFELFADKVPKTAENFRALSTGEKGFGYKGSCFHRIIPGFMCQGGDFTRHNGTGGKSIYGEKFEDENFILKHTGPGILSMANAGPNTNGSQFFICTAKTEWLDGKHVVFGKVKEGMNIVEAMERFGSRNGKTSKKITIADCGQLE
Chain of NRAS G12C binding to BRAF RBD (P01111 whole entry G12C): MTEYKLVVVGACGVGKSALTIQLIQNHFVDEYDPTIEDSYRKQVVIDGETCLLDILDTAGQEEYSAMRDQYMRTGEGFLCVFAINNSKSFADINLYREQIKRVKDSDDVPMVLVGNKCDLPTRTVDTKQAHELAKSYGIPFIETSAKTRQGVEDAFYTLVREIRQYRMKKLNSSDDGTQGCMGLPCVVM
Chain of NRAS G12C binding to BRAF RBD (P62937 whole entry): as the sequence (P62937 whole entry) above
Chain of NRAS G12C (P01111 whole entry G12C): as the sequence (P01111 whole entry G12C) above
Chain of NRAS G12C (P62937 whole entry): as the sequence (P62937 whole entry) above
Chain of KRAS WT (P01116 other isoform, or with tags, fused parts or gaps): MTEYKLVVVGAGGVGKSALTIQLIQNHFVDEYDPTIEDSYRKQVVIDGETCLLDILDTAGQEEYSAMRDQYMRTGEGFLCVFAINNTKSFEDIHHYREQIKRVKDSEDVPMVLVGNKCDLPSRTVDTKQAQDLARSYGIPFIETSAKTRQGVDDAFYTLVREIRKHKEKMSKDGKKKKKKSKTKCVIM
Chain of KRAS WT (P62937 whole entry): as the sequence (P62937 whole entry) above
Chain of KRAS G12C (P01116-2 other isoform, or with tags, fused parts or gaps G12C): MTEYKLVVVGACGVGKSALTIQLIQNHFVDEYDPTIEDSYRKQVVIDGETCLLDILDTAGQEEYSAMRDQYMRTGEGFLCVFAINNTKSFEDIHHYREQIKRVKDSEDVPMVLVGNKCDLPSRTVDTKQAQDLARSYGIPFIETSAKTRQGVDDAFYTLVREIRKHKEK
Chain of KRAS G12C (P62937 whole entry): as the sequence (P62937 whole entry) above
Chain of KRAS G12V (P01116 other isoform, or with tags, fused parts or gaps G12V): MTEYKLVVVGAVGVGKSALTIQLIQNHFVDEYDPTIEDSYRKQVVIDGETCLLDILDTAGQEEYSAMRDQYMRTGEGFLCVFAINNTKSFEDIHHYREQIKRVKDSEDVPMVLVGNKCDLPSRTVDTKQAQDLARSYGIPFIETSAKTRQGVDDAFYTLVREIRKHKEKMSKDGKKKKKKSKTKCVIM
Chain of KRAS G12V (P62937 whole entry): as the sequence (P62937 whole entry) above
Chain of KRAS G13D binding to BRAF RBD (P01116 other isoform, or with tags, fused parts or gaps G13D): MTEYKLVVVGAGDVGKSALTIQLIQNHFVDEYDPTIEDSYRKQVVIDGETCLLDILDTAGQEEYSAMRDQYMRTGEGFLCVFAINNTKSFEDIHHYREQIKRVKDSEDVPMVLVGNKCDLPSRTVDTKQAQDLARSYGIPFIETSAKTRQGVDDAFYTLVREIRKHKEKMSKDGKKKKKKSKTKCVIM
Chain of KRAS G13D binding to BRAF RBD (P62937 whole entry, canonical isoform): as the sequence (P62937 whole entry) above
Chain of KRAS G13D (P01116 other isoform, or with tags, fused parts or gaps G13D): as the sequence (P01116 other isoform, or with tags, fused parts or gaps G13D) above
Chain of KRAS G13D (P62937 whole entry): as the sequence (P62937 whole entry) above
Chain of KRAS G12D (P01116 other isoform, or with tags, fused parts or gaps G12D): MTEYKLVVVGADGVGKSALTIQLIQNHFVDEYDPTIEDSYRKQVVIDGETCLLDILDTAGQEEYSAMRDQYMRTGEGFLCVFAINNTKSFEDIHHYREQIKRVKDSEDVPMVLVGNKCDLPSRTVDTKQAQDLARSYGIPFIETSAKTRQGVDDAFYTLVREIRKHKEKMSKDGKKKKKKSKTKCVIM
Chain of KRAS G12D (P62937 whole entry): as the sequence (P62937 whole entry) above
Chain of KRAS G12S (P01116 other isoform, or with tags, fused parts or gaps G12S): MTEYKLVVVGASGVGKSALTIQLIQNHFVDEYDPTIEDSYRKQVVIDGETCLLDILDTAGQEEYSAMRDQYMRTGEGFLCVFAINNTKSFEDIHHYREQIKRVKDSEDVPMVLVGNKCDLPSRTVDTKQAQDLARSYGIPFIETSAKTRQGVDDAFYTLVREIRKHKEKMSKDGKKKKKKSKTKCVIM
Chain of KRAS G12S (P62937 whole entry): as the sequence (P62937 whole entry) above

`CCn1c(-c2cccnc2[C@H](C)OC)c2c3cc(ccc31)-c1csc(n1)C[C@H](NC(=O)[C@H](C(C)C)N1CC[C@]3(CCN(C(=O)C#CC(C)(C)N(C)C)C3)C1=O)C(=O)N1CCC[C@H](N1)C(=O)OCC(C)(C)C2` (single isomer, unassigned) [Compound A425]: the results for the IC50 in [1] and in assay [2] were over 10 µM and 10 to 100 nM, respectively.

As to `CC#CC(=O)N1CC[C@]2(CCN([C@H](C(=O)N[C@H]3Cc4cccc(c4)-c4ccc5c(c4)c(c(-c4cccnc4[C@H](C)OC)n5CC)CC(C)(C)COC(=O)[C@@H]4CCCN(N4)C3=O)C(C)C)C2=O)C1` (single isomer, unassigned) [Compound A426], the results for the IC50 in [1] and in assay [2] were over 10 µM and 1000 to 10000 nM, respectively.

On to `CCn1c(-c2cccnc2COC)c2c3cc(ccc31)-c1cc(C)cc(c1)C[C@H](NC(=O)[C@@H](C(C)C)N(C)C(=O)[C@H]1CCN(C(=O)C#CCN(C)C)C1)C(=O)N1CCC[C@H](N1)C(=O)OCC(C)(C)C2` [Compound A156], for which the IC50 in assay [1] was 1 to 10 µM; in assay [2] it was 100 to 1000 nM.

As to `CCn1c(-c2cccnc2COC)c2c3cc(ccc31)-c1cc(O)cc(c1)C[C@H](NC(=O)[C@H](C(C)C)N(C)C(=O)[C@H]1CCN(C(=O)/C=C\CN(C)C)C1)C(=O)N1CCC[C@H](N1)C(=O)OCC(C)(C)C2` [Compound A161], the IC50 is 1 to 10 µM in [1] and 100 to 1000 nM in assay [2].

On to `CCn1c(-c2cccnc2[C@H](C)OC)c2c3cc(ccc31)-c1cc(cc(C(F)F)c1)C[C@H](NC(=O)[C@@H](COC1CN(C(=O)C#CC(C)(C)N(C)C)C1)C(C)C)C(=O)N1CCC[C@H](N1)C(=O)OCC(C)(C)C2` [Compound A404], for which the figures for the IC50 in assay [1] and in [2] were over 10 µM and 100 to 1000 nM, respectively.

On to `CCn1c(-c2cccnc2[C@H](C)OC)c2c3cc(ccc31)-c1cccc(c1)C[C@H](NC(=O)[C@H](C(C)C)N1CC[C@]3(CCN(C(=O)C#CC(C)(C)N(C)C)C3)C1=O)C(=O)N1CCC[C@H](N1)C(=O)OCC(C)(C)C2` [Compound A414], for which the IC50 in [1] was over 10 µM.

For the molecule `CCn1c(-c2cnccc2COC)c2c3cc(ccc31)-c1cc(O)cc(c1)C[C@H](NC(=O)[C@H](C(C)C)N(C)C(=O)CN(C)C(=O)[C@H]1N[C@@H]1c1ccccc1)C(=O)N1CCC[C@H](N1)C(=O)OCC(C)(C)C2` [Example 12], the concentration for half-maximal inhibition (IC50) in the assay on AsPC-1 (K-Ras G12D) [3] fell in the range of 100 to 1000 nM; at KRAS G12S, 10 to 100 nM; against KRAS G12V, 10 to 100 nM; against KRAS WT, 10 to 100 nM; at NRAS G12C it was 10 to 100 nM; against KRAS G12C, 10 to 100 nM. Also, the half-maximal inhibitory concentration (IC50) lay in the range of 10 to 100 nM at KRAS G13D, 10 to 100 nM at KRAS G13C, 100 to 1000 nM against KRAS G12D and 100 to 1000 nM in the assay on NCI-H358 (K-Ras G12C). In addition, the EC50 in the assay with AsPC-1 (K-Ras G12D) [4] is under 5 µM.

In the case of `CCn1c(-c2cnccc2COC)c2c3cc(ccc31)-c1cc(O)cc(c1)C[C@H](NC(=O)[C@H](C(C)C)N(C)C(=O)CN(C)C(=O)[C@@H]1N[C@H]1c1ccc(OC)cc1)C(=O)N1CCC[C@H](N1)C(=O)OCC(C)(C)C2` [Example 96], the IC50 with AsPC-1 (K-Ras G12D) [3] was in the range of 1000 to 10000 nM; against KRAS G12S, 10 to 100 nM; against KRAS G12V, 10 to 100 nM; at KRAS WT, 10 to 100 nM; against NRAS G12C, 10 to 100 nM; on KRAS G12C, 10 to 100 nM. For the same molecule, the IC50 against KRAS G13D was in the range of 100 to 1000 nM; against KRAS G13C, 10 to 100 nM; at KRAS G12D, 100 to 1000 nM; with NCI-H358 (K-Ras G12C) it was 1000 to 10000 nM. For the same molecule, in the assay on AsPC-1 (K-Ras G12D) [4], the 50% effective concentration (EC50) was under 5 µM.

Turning to `CCn1c(-c2cnccc2COC)c2c3cc(ccc31)-c1cc(O)cc(c1)C[C@H](NC(=O)[C@H](C(C)C)N(C)C(=O)CN(C)C(=O)[C@@H]1N[C@@H]1C1CC1)C(=O)N1CCC[C@H](N1)C(=O)OCC(C)(C)C2` [Example 103], the IC50 lay in the range of 100 to 1000 nM in the assay on AsPC-1 (K-Ras G12D) [3]; 10 to 100 nM on KRAS G12S; 10 to 100 nM against KRAS G12V; 10 to 100 nM against KRAS WT; 10 to 100 nM against NRAS G12C; 10 to 100 nM on KRAS G12C. Also, the half-maximal inhibitory concentration (IC50) lay within 100 to 1000 nM against KRAS G13D, 10 to 100 nM at KRAS G13C, 10 to 100 nM against KRAS G12D and 100 to 1000 nM with NCI-H358 (K-Ras G12C). For the same molecule, the EC50 in the assay with AsPC-1 (K-Ras G12D) [4] is under 5 µM.

As usually defined, the IC50 is the concentration needed to halve the response being measured. One may read the EC50 as the concentration giving half of the maximal effect.
